Experimental data taken from patent publication US5306812A, “Immunoglobulin-binding polypeptides” (The Regents of the University of California, priority 1990, dated 1994).
Where no end group is shown, it is not given here.

Key:
[1] = tested on: binding of peptide p21-49 to immunoglobulin (monoclonal antibodies 62 and OKT4A); experiment: ELISA: binding of p21-49 to immunoglobulins in the presence of dextran sulfate; set-up: species or system murine; conditions: dextran sulfate 0.01 ug/ml to 50 ug/ml; both monoclonal antibody 62 (anti-thyroglobulin) and OKT4A (anti-CD4)
Experimental: The binding of peptide p21-49 to various immunoglobulins was determined in the presence of varying concentration of dextran sulfate. Briefly, peptide p21-49 was affixed to the wells of microliter plates as described in Example 1B. Dextran sulfate was then admixed to individual wells at a final concentration ranging from 0.01 ug/ml to 50 ug/ml. The first antibody, either a murine monoclonal antibody immunospecific for thyroglobulin or a murine monoclonal antibody immunospecific for CD4 protein was diluted to approximately 4 ug/ml in binding buffer and admixed to each well. The wells were maintained at room temperature for 4 hours in a humidified atmosphere. The wells were then washed 6 times with washing buffer and the excess liquid removed by aspiration. The assay was completed according to Example 1B.

[2] = tested on: murine monoclonal antibodies; experiment: ELISA: binding of solid-phase CD4 peptide to murine monoclonal antibodies; set-up: species or system mouse; conditions: compared with p21-38 and p21-49 or with background
Experimental: The plate was maintained for six hours at 37 degrees (37° C.) on a rotating platform to allow the peptide to adhere to the wells and form solid supports. After aspirating the excess liquid from the wells, 200 ul of washing solution containing TWEEN 20 (0.5% polyoxyethylenesorbitan monolaurate) in phosphate buffered saline (0.5M sodium chloride, 0.01M sodium phosphate at pH 7.2; PBS) was admixed to each well and immediately removed by aspiration. After aspirating the excess liquid from the wells 200 ul of blocking solution consisting of 1% bovine serum albumin (BSA) in phosphate buffered saline at pH 7.4 was admixed to each well, and the wells maintained at room temperature for one hour. The wells were washed with 200 ul a solution containing 0.5% TWEEN-20 (Polyoxyethylenesorbitan monolaurate) in PBS and the wash solution immediately removed by aspiration.
A first antibody, either a murine monoclonal antibody or a purified human myeloma protein was diluted to approximately 80 ug per ml in binding buffer consisting of 1% BSA and 0.5% TWEEN 20 (polyoxyethylenesorbitan monolaurate) in PBS and then various amounts, depending on the final antibody concentration desired, were admixed to each well and the wells maintained at room temperature for 3 or 4 hours in a humidified atmosphere. The wells were then washed 6 times with washing buffer and the excess liquid removed by aspiration.
50 ul of a horse radish peroxidase (HRP)-conjugated anti-mouse Ig secondary antibody (Cappel, Cochranvile, Pa.) or HRP-conjugated antihuman Ig (Sigma, St. Louis, Mo.) diluted 1:10,000 and 1:1,500, respectively, in binding buffer supplemented with 15% heat inactivated calf serum, was then admixed to each well. The wells were maintained for 1 hour at room temperature and then washed several times with washing buffer. 100 ul of freshly prepared substrate, prepared by adding 4 mg of 0-phenylendiamine and 4 ul of a 30% solution of hydrogen peroxide to 10 ml of a buffer containing 0.1M citric acid and 0.2M dibasic sodium phosphate at pH 5.0. were admixed to each well. The wells were then maintained (incubated) for 30 minutes at room temperature in the dark. The reaction was stopped by adding 25 ul per well of a stop buffer consisting of aqueous 4N H2 SO4. The amount of colored reaction product produced was determined by measuring the absorbance at 492 nanometers (nm).
Each peptide's ability to bind mouse monoclonal antibodies was determined using the ELISA assay described in Example 1B.

inhibition of peptide p21-49 binding to immunoglobulin (FIG. 7) [1] | Substance | relative binding of CD4 peptides (FIG. 15) [2]
inhibits the binding | dextran sulfate | 
 | IQFHWKNSNQIKILG [p 24-38, IQ FHWKN SNQIK ILG] | comparable binding with that of p21-38 and p21-49
 | SIQFHWKNSNQIKILG [p 23-38, SIQ FHWKN SNQIK ILG] | comparable binding with that of p21-38 and p21-49
 | KSIQFHWKNSNQIKILG [p 22-38, KSIQ FHWKN SNQIK ILG] | comparable binding with that of p21-38 and p21-49
 | KKSIQFHWKNSNQIKIL [p 21-37, KKSIQ FHWKN SNQIK IL] | comparable binding with that of p21-38 and p21-49
